These results are taken from US12268702B2, “Antitumor pharmaceutical composition comprising azvudine and chemotherapeutic agent” (HENAN GENUINE BIOTECH CO., LTD., priority 2023, dated 2025).

Structures are written as SMILES.

Assay type in all cases: in vivo
Assay [1] deals with Daudi xenograft tumor model. The experiment in a line: Human Burkitt's lymphoma cell Daudi subcutaneous xenograft tumor model. Conditions: combination 1 + 50 mg/kg; for Tumor volume (mm^3) on the 27th day: CB 17 SCID mice, QD x 4 weeks, azvudine 1 mg/kg p.o., cyclophosphamide 50 mg/kg i.p. The procedure:
Human Burkitt's lymphoma cells Daudi (Cat. No.: DSMZ-ACC129) were in vitro suspended and cultured in RPMI 1640 medium containing 10% fetal bovine serum, 2 mM glutamine, 100 U/mL penicillin and 100 μg/mL streptomycin, in a 37° C. and 5% CO2 incubator. When the cell saturation achieved 80%-90% and the cell number reached the requirement, the cells were collected, counted and inoculated.
0.2 mL (10×10^6) of Daudi cells (added with Matrigel at a volume ratio of 1:1) were subcutaneously inoculated on the right back of each mouse. The grouping administration was started when the average tumor volume reached about 100 mm^3.
The changes of tumor volume and tumor weight in each group after administration of test drugs for treating CB 17 SCID mice with Daudi cell subcutaneous xenograft tumor are shown in Table 8 and Table 9 respectively.
(In general: Xenograft models place foreign cells or tissue in a host animal.)

The subject of assay [2] is MOLT4 xenograft tumor model. The experiment in a line: Human acute lymphoblastic leukemia MOLT4 cell subcutaneous xenograft tumor model. As to the method:
Human acute lymphoblastic leukemia cells MOLT4 (Cat. No.: ECACC-85011413) were in vitro suspended and cultured in RPMI 1640 medium containing 10% fetal bovine serum, 100 U/mL penicillin and 100 μg/mL streptomycin, in a 37° C. and 5% CO2 incubator. When the cell saturation achieved 80%-90% and the cell number reached the requirement, the cells were collected, counted and inoculated.
0.2 mL (10×10^6) of MOLT4 cells (added with Matrigel at a volume ratio of 1:1) were subcutaneously inoculated on the right back of each mouse. The grouping administration was started when the average tumor volume reached about 148 mm^3.
The changes of tumor volume and tumor weight in each group after administration of test drugs for treating SCID Beige mice with MOLT4 cell subcutaneous xenograft tumor are shown in Table 10 and Table 11.

Assay [3] concerns A2058 xenograft tumor model. Put plainly: Human melanoma A2058 cell subcutaneous xenograft tumor model. The following applies: azvudine 1 mg/kg, dacarbazine 60 mg/kg, combination 1 + 60 mg/kg. As to the method: Human melanoma cells A2058 (Cat. No.: CRL-11147) were cultured in vitro as a monolayer in DMEM medium containing 10% fetal bovine serum, 100 U/mL penicillin and 100 μg/mL streptomycin, in a 37° C. and 5% CO2 incubator. The cells were routinely digested with trypsin-EDTA and passaged twice a week. When the cell saturation reached 80%-90% and the cell number achieved the requirement, the cells were collected, counted and inoculated.
0.2 mL (5×10^6) of A2058 cells were added with Matrigel, and the mixture was subcutaneously inoculated on the right back of each mouse. The grouping administration was started when the average tumor volume reached about 136 mm^3.

The mark [4] stands for this setting: based on tumor volume, 27th day, azvudine 1 mg/kg, cyclophosphamide 50 mg/kg.
The mark [5] stands for this setting: 28th day after start of administration, azvudine 1 mg/kg.
Where [6] appears, read: based on tumor volume, 28th day, azvudine 2 mg/kg in Table 10, cyclophosphamide 50 mg/kg, combination 1 + 50 mg/kg.
[7] abbreviates: based on tumor volume, 14th day.

As usually defined, the TGI is the reduction of tumour growth relative to the control group. For the compound `[N-]=[N+]=N[C@]1(CO)O[C@@H](n2ccc(N)nc2=O)[C@@H](F)[C@@H]1O` [Azvudine, azvudine], the “Tumor volume (mm^3) on the 27th day” value in assay [1] (27th day of administration) turned out to be 909 ± 120 mm^3; in assay [1] (27th day of administration, listed as azvudine) it was 909 mm^3. The “Tumor weight (g) (On the 27th day)” value in assay [1] (27th day of administration, azvudine 1 mg/kg, cyclophosphamide 50 mg/kg) is given as 0.996 ± 0.143 g. The “T/C (%)” value in assay [1] (setting [4]) is 30.64%; in assay [2] (setting [6]), 33.55%; in assay [3] (setting [7]) it was 79.67%. For the same compound, the “TGI (%)” value came to 71.09% in assay [1] (setting [4]), 69.49% in assay [2] (setting [6]) and 18.22% in assay [3] (setting [7]). Besides, the “T/Cweight (%)” value in assay [1] (based on tumor weight, 27th day, azvudine 1 mg/kg, cyclophosphamide 50 mg/kg) was determined as 33.38%; in assay [2] (based on tumor weight, 28th day, azvudine 1 mg/kg, cyclophosphamide 50 mg/kg, combination 1 + 50 mg/kg), 39.31%. In assay [2] (setting [5]), this compound had a T/C of 33.89. The TGI in assay [2] (setting [5]) was 69.73%. In assay [2] (setting [5]), this compound returned a Tumor volume of 979 mm^3. Further, the “Tumor volume (mm^3) on the 28th day” value in assay [2] (28th day of administration, SCID Beige mice, QD x 4 weeks, azvudine 2 mg/kg in Table 10, cyclophosphamide 50 mg/kg i.p., combination 1 + 50 mg/kg) is given as 986 ± 179 mm^3. Besides, the “Tumor weight (g) (On the 28th day)” value in assay [2] (28th day of administration, azvudine 1 mg/kg, cyclophosphamide 50 mg/kg, combination 1 + 50 mg/kg) was 1.168 ± 0.145 g. The “Tumor volume (mm^3) on the 14th day” value in assay [3] (14th day of administration, listed as azvudine) is 2253 mm^3.
